In ChEMBL document CHEMBL3132759, “Design and synthesis of a novel series of cyclohexyloxy-pyridyl derivatives as inhibitors of diacylglycerol acyl transferase 1” (Medchemcomm, 2013):
≈ marks a conversion by molar mass, not a printed value.

Experiments:
[1] = molecular target: T1, Diacylglycerol O-acyltransferase 1 (Homo sapiens, UniProt O75907); experiment: Inhibition of human DGAT1
T1 sequence (O75907 whole entry): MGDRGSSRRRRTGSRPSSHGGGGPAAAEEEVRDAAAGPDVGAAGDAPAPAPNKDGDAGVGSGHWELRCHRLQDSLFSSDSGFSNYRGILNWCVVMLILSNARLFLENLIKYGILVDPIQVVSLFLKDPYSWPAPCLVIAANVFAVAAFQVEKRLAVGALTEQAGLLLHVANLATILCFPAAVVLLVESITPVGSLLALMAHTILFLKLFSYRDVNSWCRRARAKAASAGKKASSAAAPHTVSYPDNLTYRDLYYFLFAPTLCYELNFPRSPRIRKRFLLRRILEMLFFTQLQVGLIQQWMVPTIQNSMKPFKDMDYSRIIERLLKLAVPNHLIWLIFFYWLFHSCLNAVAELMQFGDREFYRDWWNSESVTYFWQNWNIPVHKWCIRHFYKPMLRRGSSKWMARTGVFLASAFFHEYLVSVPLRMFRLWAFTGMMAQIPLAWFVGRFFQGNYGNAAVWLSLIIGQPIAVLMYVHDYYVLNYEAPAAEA

[2] = Thermodynamic solubility of the compound after 24 hrs at pH 7.4; assay type: physicochemical; settings: buffer, read-out: Therm_solubility
[3] = molecular target: T2, Sterol O-acyltransferase 1 (Homo sapiens, UniProt P35610); experiment: Inhibition of human ACAT1
T2 sequence (P35610 whole entry): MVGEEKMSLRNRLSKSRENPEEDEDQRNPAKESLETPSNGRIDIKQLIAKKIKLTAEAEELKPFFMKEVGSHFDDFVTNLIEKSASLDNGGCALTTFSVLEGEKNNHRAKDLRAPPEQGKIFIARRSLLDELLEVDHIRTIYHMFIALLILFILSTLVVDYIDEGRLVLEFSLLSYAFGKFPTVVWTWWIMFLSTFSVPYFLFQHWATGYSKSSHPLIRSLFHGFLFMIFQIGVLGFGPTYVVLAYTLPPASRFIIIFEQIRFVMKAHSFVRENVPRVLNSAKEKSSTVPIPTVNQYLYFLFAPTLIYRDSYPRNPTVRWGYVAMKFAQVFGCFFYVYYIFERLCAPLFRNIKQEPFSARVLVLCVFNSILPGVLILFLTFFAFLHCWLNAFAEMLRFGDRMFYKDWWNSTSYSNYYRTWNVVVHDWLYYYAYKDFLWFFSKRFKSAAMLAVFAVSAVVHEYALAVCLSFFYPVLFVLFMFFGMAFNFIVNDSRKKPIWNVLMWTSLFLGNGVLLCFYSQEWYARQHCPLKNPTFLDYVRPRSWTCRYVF

[4] = Lipophilicity, logD of the compound; assay type: physicochemical; settings: octanol/water
[5] = test system: Plasma; experiment: Fraction unbound in rat plasma; assay type: ADME, cell-free
[6] = test system: Hepatocyte; experiment: Intrinsic clearance in human hepatocytes; assay type: ADME, cell-based
[7] = Apparent permeability in MDCK cells assessed as permeability from apical to basolateral side; assay type: ADME, cell-based, Canis lupus familiaris; settings: dog
[8] = Oral bioavailability in rat; assay type: ADME, organism-based; settings: in vivo
[9] = Oral bioavailability in dog; assay type: ADME, organism-based, Canis lupus familiaris; settings: in vivo
[10] = Clearance in rat; assay type: ADME, organism-based; settings: in vivo
[11] = species on record: Rattus norvegicus; experiment: Unbound clearance in rat; assay type: ADME, organism-based; settings: in vivo
[12] = species on record: Canis familiaris; experiment: Unbound clearance in dog; assay type: ADME, organism-based, Canis lupus familiaris; settings: in vivo
[13] = Clearance in dog; assay type: ADME, organism-based, Canis lupus familiaris; settings: in vivo
[14] = Apparent permeability in human Caco2 cells assessed as permeability from apical to basolateral side; assay type: ADME, cell-based; settings: Caco-2
[15] = species on record: Rattus norvegicus; experiment: Reduction in circulating plasma triglyceride levels in rat by oral lipid tolerance test by PK/PD analysis; assay type: functional, organism-based
[16] = molecular target: T1, Diacylglycerol O-acyltransferase 1; experiment: Inhibition of DGAT1 in human HuTu80 cells assessed as reduction in triglyceride levels; assay type: cell-based
[17] = molecular target: T3, Diacylglycerol O-acyltransferase 1 (Rattus norvegicus, UniProt Q9ERM3); experiment: Inhibition of DGAT1 in rat microsomes
T3 sequence (Q9ERM3 whole entry): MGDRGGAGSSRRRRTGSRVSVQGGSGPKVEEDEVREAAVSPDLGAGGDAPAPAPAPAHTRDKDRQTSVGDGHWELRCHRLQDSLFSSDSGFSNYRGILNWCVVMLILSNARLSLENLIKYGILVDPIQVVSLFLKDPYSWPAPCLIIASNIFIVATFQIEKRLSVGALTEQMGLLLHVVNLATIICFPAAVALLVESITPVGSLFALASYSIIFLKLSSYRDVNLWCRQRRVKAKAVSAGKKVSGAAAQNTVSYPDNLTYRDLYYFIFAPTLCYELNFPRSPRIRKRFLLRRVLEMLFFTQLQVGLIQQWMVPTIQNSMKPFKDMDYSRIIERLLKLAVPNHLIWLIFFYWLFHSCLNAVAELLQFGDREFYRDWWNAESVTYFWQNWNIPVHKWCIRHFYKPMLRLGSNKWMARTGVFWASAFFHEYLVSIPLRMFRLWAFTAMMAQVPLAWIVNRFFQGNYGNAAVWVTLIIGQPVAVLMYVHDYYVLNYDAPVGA

[18] = molecular target: Cytochrome P450 2C19 (Homo sapiens, UniProt P33261); experiment: Inhibition of CYP2C19 (unknown origin); assay type: ADME
Chain of Cytochrome P450 2C19 (P33261 whole entry): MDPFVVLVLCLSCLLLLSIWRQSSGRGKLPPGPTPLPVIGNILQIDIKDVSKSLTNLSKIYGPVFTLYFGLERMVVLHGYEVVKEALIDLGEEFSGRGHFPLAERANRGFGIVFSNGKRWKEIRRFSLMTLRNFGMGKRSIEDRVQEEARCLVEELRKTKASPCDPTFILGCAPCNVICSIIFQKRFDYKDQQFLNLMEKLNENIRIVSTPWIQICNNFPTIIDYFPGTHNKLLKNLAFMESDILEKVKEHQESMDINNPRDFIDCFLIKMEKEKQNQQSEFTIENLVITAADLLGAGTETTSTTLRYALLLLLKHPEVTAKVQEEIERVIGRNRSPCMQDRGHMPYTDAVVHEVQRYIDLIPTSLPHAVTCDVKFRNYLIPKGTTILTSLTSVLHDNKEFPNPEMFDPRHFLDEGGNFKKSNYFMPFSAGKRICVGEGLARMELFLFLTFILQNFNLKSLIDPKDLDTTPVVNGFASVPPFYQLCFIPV

[19] = molecular target: Cytochrome P450 2C9 (Homo sapiens, UniProt P11712); experiment: Inhibition of CYP2C9 (unknown origin); assay type: ADME
Chain of Cytochrome P450 2C9 (P11712 whole entry): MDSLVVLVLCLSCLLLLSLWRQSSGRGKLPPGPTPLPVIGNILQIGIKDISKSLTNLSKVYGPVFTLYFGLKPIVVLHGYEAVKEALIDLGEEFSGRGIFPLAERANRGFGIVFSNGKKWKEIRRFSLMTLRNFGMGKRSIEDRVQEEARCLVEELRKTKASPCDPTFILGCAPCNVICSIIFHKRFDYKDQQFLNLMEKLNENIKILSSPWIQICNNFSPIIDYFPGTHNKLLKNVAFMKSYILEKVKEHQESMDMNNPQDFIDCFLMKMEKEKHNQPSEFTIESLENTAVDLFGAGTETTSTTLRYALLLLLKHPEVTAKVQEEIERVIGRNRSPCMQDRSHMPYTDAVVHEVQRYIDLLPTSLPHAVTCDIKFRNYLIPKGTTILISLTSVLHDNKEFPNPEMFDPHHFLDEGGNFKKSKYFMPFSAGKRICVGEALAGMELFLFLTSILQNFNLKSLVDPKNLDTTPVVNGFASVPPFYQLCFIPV

[20] = molecular target: Voltage-gated inwardly rectifying potassium channel KCNH2 (Homo sapiens, UniProt Q12809); experiment: Inhibition of human ERG
Chain of Voltage-gated inwardly rectifying potassium channel KCNH2 (Q12809 whole entry): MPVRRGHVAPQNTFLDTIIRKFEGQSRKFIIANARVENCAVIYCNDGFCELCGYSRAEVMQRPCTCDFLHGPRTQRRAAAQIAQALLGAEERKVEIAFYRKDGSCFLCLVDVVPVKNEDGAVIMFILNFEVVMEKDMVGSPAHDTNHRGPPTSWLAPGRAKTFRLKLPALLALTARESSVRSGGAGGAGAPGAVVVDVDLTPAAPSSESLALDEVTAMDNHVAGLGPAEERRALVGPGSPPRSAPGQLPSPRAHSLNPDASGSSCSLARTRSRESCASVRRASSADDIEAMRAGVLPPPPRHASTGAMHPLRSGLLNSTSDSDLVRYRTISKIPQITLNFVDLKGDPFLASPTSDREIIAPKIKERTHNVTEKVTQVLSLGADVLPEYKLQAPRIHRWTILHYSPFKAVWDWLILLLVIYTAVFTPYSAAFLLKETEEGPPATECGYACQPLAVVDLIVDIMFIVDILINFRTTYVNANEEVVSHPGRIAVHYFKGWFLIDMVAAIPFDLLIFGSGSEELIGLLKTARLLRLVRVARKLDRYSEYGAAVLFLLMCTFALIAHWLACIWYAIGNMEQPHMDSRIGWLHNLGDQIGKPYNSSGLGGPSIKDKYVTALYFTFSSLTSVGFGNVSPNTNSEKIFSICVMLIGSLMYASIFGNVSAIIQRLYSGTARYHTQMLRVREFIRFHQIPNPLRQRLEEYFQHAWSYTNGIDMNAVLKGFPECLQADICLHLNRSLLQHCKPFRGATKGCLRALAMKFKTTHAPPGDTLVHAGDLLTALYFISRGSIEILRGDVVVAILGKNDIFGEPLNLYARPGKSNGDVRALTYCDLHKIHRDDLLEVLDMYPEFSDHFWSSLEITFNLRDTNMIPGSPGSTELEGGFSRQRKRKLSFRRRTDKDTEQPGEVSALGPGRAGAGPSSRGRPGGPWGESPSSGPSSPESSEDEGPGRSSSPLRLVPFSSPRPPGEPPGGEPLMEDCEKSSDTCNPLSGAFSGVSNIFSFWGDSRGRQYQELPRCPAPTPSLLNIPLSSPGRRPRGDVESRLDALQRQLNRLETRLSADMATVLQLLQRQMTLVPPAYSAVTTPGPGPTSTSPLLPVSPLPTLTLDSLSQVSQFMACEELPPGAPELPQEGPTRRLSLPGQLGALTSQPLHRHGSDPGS

[21] = molecular target: Cytochrome P450 2D6 (Homo sapiens, UniProt P10635); experiment: Inhibition of CYP2D6 (unknown origin); assay type: ADME
Chain of Cytochrome P450 2D6 (P10635 whole entry): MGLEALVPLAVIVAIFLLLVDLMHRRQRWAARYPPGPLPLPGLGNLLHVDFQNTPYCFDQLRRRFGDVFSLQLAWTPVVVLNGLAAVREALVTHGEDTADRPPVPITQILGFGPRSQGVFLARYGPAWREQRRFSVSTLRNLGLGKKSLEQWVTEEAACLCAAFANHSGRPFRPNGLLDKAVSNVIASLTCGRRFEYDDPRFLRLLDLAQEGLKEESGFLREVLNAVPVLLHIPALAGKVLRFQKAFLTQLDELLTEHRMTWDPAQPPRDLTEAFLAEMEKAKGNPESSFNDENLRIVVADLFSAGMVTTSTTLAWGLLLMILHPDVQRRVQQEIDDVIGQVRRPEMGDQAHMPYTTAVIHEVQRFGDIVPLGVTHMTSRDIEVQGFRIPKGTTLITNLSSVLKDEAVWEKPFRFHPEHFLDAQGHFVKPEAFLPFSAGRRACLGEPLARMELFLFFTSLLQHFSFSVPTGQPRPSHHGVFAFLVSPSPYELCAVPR

[22] = molecular target: T4, Cytochrome P450 1A2 (Homo sapiens, UniProt P05177); experiment: Inhibition of CYP1A2 (unknown origin); assay type: ADME
T4 sequence (P05177 whole entry): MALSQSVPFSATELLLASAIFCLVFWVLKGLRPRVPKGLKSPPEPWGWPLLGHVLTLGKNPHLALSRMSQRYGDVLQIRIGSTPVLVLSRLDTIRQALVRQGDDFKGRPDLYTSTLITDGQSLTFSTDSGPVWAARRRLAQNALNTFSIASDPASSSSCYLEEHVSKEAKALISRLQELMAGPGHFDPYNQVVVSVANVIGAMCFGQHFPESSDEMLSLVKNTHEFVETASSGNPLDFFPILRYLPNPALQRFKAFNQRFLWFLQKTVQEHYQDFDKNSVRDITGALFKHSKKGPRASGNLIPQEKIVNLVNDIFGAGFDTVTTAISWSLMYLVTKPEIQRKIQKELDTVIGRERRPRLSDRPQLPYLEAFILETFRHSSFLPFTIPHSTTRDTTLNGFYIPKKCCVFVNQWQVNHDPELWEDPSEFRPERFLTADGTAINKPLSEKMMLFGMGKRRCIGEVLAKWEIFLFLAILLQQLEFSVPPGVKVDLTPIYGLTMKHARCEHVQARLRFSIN

[23] = molecular target: Cytochrome P450 3A4 (Homo sapiens, UniProt P08684); experiment: Inhibition of CYP3A4 (unknown origin); assay type: ADME
Chain of Cytochrome P450 3A4 (P08684 whole entry): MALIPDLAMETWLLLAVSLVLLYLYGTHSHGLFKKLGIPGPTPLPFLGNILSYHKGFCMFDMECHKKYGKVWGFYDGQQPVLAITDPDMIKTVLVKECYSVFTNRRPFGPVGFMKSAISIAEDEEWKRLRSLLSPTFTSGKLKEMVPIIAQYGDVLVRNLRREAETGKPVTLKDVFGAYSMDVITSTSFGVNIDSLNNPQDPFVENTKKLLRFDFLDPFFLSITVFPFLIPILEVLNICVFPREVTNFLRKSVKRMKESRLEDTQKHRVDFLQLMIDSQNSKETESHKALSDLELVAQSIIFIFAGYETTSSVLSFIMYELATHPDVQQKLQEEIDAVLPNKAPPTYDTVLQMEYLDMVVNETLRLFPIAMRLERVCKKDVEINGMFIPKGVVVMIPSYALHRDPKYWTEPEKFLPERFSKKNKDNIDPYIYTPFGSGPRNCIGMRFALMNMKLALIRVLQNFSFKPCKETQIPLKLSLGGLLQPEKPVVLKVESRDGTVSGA

[24] = species on record: Rattus norvegicus; experiment: Reduction in circulating plasma triglyceride levels in rat by oral lipid tolerance test; assay type: functional, organism-based
[25] = molecular target: T5, Diacylglycerol O-acyltransferase 2 (Homo sapiens, UniProt Q96PD7); experiment: Inhibition of human DGAT2
T5 sequence (Q96PD7 whole entry): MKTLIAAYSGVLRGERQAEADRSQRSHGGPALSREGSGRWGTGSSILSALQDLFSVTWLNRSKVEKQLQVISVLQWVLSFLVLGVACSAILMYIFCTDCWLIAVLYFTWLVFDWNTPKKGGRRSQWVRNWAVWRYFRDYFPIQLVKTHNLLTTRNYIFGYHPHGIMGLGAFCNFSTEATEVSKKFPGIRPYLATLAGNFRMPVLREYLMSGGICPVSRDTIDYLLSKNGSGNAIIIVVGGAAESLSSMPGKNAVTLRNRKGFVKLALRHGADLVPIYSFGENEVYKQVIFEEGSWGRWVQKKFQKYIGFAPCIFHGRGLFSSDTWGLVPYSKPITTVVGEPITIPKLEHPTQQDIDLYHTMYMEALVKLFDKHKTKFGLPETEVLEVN

IC50 [1] [nM] | solubility thermodynamic at 24 h [2] [µM] | IC50 [3] [nM] | logD [4] | Intrinsic clearance (CLint) [6] [µL/min/mg] | Papp A→B [7] [×10⁻⁶ cm/s] | bioavailability [8] [%] | bioavailability [9] [%] | clearance [10] [mL/min/kg] | CL free [11] [mL/min/kg] | CL free [12] [mL/min/kg] | clearance [13] [mL/min/kg] | SMILES | further results
15 | 13 (≈ 6.43 µg/mL) | 6500 | 1.8 |  |  |  |  |  |  |  |  | O=C(Nc1ccc(O[C@H]2CC[C@H](C(=O)O)CC2)cc1F)c1nnc(Nc2cc(F)c(F)cc2F)o1 | 
 | 27 (≈ 12.9 µg/mL) |  | 1.9 |  |  |  |  |  |  |  |  | O=C(Nc1ccc(O[C@H]2CC[C@H](C(=O)O)CC2)cc1)c1nnc(Nc2cc(F)c(F)cc2F)o1 | 
 | 6 (≈ 2.71 µg/mL) |  | 2.3 | < 22 |  |  |  |  |  |  |  | O=C(O)c1cccc(Oc2ccc(NC(=O)c3nnc(Nc4ccc(F)c(F)c4)o3)cc2)c1 | Fu [5]: < 0.01%
5 | 5 (≈ 2.2 µg/mL) | 1800 | 1.2 |  |  |  |  |  |  |  |  | O=C(Nc1ccc(O[C@H]2CC[C@@H](C(=O)O)CC2)cc1)c1nnc(Nc2ccc(F)cc2)o1 | 
4 | 3 (≈ 1.38 µg/mL) | 1100 |  |  |  |  |  |  |  |  |  | O=C(Nc1ccc(O[C@H]2CC[C@@H](C(=O)O)CC2)cc1)c1nnc(Nc2ccc(F)c(F)c2)o1 | 
3 | 15 (≈ 7.16 µg/mL) | 4800 | 1.9 | < 2 | 16 |  |  | 3.6 | 600 | 300 | 5.1 | O=C(Nc1ccc(O[C@H]2CC[C@@H](C(=O)O)CC2)nc1F)c1nnc(Nc2ccc(F)c(F)c2)o1 | 
5 | 49 (≈ 22.5 µg/mL) | 6500 | 1.9 | < 2 | 2 | 33 | 60 | 7.4 | 740 | 130 | 4.7 | O=C(Nc1ccc(O[C@H]2CC[C@@H](C(=O)O)CC2)nc1)c1nnc(Nc2ccc(F)c(F)c2)o1 | 
 | 43 (≈ 20.5 µg/mL) |  | 1.9 | < 2 | 11 | 115 | 23 | 1.1 | 470 | 920 | 11 | O=C(Nc1ccc(O[C@H]2CC[C@@H](C(=O)O)CC2)cc1)c1nnc(Nc2cc(F)c(F)cc2F)o1 | Fu [5]: 0.4%

The remaining lines, values behind:

SMILES | IC50 [1] [nM] | solubility thermodynamic at 24 h [2] [µM] | IC50 [3] [nM] | logD [4] | Intrinsic clearance (CLint) [6] [µL/min/mg] | Papp A→B [7] [×10⁻⁶ cm/s] | bioavailability [8] [%] | bioavailability [9] [%] | clearance [10] [mL/min/kg] | CL free [11] [mL/min/kg] | CL free [12] [mL/min/kg] | clearance [13] [mL/min/kg] | further results
O=C(Nc1cnc(O[C@H]2CC[C@@H](C(=O)O)CC2)cc1F)c1nnc(Nc2cc(F)c(F)cc2F)o1 | 6 | 240 (≈ 119 µg/mL) | 1300 | 1.6 |  |  |  |  |  |  |  |  | 
O=C(O)c1ccc(Oc2ccc(NC(=O)c3nnc(Nc4ccc(F)c(F)c4)o3)cn2)cc1 | 5 | 23 (≈ 10.4 µg/mL) | 5600 | 1.4 |  | 1.1 |  |  |  |  |  |  | 
O=C(Nc1ccc(O[C@H]2CC[C@@H](C(=O)O)CC2)nc1F)c1nnc(Nc2cc(F)c(F)cc2F)o1 | 4 | 2200 (≈ 1090 µg/mL) | 1100 | 1.8 | < 2 | 15 | 100 | 61 | 1.8 | 300 | 200 | 4.6 | 
N#Cc1ccc(Nc2nnc(C(=O)Nc3ccc(O[C@H]4CC[C@@H](C(=O)O)CC4)cc3)o2)cc1 | 18 |  | 14300 | 1.4 |  |  |  |  |  |  |  |  | 
O=C(O)C[C@H]1CC[C@H](c2ccc(NC(=O)c3nnc(Nc4ccc(F)c(F)c4)o3)cc2)CC1 |  | 2 (≈ 0.913 µg/mL) |  |  |  |  |  |  |  |  |  |  | 
O=C(Nc1ccc(O[C@H]2CC[C@@H](C(=O)O)CC2)c(F)c1)c1nnc(Nc2cc(F)c(F)cc2F)o1 |  | 11 (≈ 5.44 µg/mL) |  | 2.3 |  |  |  |  |  |  |  |  | 
O=C(Nc1ccc(O[C@H]2CC[C@@H](C(=O)O)CC2)cc1F)c1nnc(Nc2cc(F)c(F)cc2F)o1 | 3 | 69 (≈ 34.1 µg/mL) | 310 | 1.9 | < 2 |  | 85 | 76 | 0.4 | 200 | 1700 | 6.5 | Papp A→B [14]: 33 ×10⁻⁶ cm/s
O=C(O)C[C@H]1CC[C@@H](Oc2ccc(NC(=O)c3nnc(Nc4ccc(F)c(F)c4)o3)cn2)CC1 | 7 | 4 (≈ 1.89 µg/mL) | 1500 | 2.2 | < 2 | 5.1 | 82 | 35 | 0.7 | 230 | 100 | 2.3 | IC50 [15]: 0.2 nM; IC50 [16]: 4 nM; IC50 [17]: 0.9 nM; IC50 [18]: > 10000 nM; IC50 [19]: > 10000 nM; IC50 [20]: > 30000 nM; IC50 [21]: > 10000 nM; IC50 [22]: > 10000 nM; IC50 [23]: > 10000 nM; inhibition [24]: Dose-dependent effect; IC50 [25]: 28000 nM
